Measurements published in patent US8173682B2, “Substituted pyridones as inhibitors of poly(ADP-ribose) polymerase (PARP)” (Aventis Pharmaceuticals Inc., priority 2004, dated 2012).
Where a name gives a salt, the structure may show the parent alone.

Target: recombinantly expressed human PARP-1 enzyme (Homo sapiens, UniProt P09874)
Assay: PARP enzyme assay, Method B (tritium-labeled NAD incorporation)
Type: biochemical
Conditions: not given
Procedure: Method B: PARP Enzyme Assay:
The IC50 is determined in this method by incubating the substances to be tested with the DNA-activated, recombinantly expressed and purified PARP-1 enzyme. Specifically, various concentrations of the test substance are incubated in 50 μL of reaction solution, which contains 50 mM Tris, 5 mM MgCl2, 1 mM DTT, 200 μM NAD, 0.1 m Ci/mL tritium-labeled NAD, 0.1 mg/mL DNA, 0.1 mg/mL histones, 2 μg/mL recombinantly expressed human PARP-1 enzyme, pH=8.0, at room temperature for 1 hour. The reaction is stopped by adding 150 μL of 20% trichloroacetic acid, and the radiolabeled protein constituents are precipitated. After incubation on ice for 10 minutes, the labeled, insoluble constituents are separated off through a glass fiber filter and, after washing with 20% trichloroacetic acid three times, the radioactivity incorporated by the PARP-1 enzyme is measured by radioluminescence. Consideration of the incorporation rates determined in this way as a function of the concentration of the test substance results in IC50 as the concentration of the test substance which reduces the incorporation rate to half the maximum value attainable (incubation without inhibitor).
The IC50 (fifty percent inhibitory concentration of the test substance in a solution—expressed at micromolar (μM) concentration) measured in accordance with these procedures for the compounds of this invention are summarized in Table 1.

recombinantly expressed human PARP-1 enzyme, sequence (P09874 whole entry): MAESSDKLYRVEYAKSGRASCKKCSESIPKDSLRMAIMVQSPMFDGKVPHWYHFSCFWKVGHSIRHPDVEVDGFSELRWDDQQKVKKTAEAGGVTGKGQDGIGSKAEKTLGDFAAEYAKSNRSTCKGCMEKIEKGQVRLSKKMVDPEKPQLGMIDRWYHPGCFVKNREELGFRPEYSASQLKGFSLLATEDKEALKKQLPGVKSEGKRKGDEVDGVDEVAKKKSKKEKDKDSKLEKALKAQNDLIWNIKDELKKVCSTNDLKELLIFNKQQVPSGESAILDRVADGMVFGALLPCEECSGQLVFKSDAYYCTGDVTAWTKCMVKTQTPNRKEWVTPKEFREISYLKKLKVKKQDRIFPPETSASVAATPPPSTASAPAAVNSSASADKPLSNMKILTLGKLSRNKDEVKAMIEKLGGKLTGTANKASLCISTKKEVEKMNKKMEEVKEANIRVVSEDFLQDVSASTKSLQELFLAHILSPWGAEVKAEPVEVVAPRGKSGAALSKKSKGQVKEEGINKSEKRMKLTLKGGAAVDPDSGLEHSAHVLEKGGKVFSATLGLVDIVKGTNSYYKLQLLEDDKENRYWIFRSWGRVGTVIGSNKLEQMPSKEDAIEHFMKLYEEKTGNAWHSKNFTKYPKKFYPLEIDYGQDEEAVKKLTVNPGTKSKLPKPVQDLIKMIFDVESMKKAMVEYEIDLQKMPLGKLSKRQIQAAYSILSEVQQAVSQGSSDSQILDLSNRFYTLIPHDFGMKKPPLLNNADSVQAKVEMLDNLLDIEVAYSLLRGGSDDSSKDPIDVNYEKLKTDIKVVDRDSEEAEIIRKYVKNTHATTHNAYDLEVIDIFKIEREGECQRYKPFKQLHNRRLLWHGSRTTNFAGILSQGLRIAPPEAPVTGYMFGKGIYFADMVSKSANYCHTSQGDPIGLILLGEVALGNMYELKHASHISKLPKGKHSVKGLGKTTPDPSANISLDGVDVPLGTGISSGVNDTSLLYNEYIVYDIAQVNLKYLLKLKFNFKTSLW

| SMILES | IC50 [µM] |
| --- | --- |
| CCc1cc(-c2cncc(C(=O)N3CCC(=O)CC3)c2)c(C)[nH]c1=O [Example 234, 5-Ethyl-2-methyl-5′-(4-oxo-piperidine-1-carbonyl)-1H-[3,3′]bipyridinyl-6-one] | 2.46 |

Same assay, conditions: Method B; 200 μM NAD, room temperature 1 hour, pH 8.0; read-out: IC50 (μM)/Method B

| SMILES | IC50 [µM] |
| --- | --- |
| CCc1cc(-c2ccc(C=NO)o2)c(C)[nH]c1=O [Example 199A, 5-(5-Ethyl-2-methyl-6-oxo-1,6-dihydro-pyridin-3-yl)-furan-2-carbaldehyde oxime] | 0.51 |
| CCc1cc(-c2cncc(C(=O)Nc3cc(C(C)(C)C)on3)c2)c(C)[nH]c1=O [Example 259, 5′-Ethyl-2′-methyl-6′-oxo-1′,6′-dihydro-[3,3′]bipyridinyl-5-carboxylic acid (5-tert-butyl-isoxazol-3-yl)-amide] | 0.73 |
| CCc1cc(-c2ccc(S(=O)(=O)NC(C)c3ccccn3)s2)c(C)[nH]c1=O (centres unmarked) [Example 43, 5-(5-Ethyl-2-methyl-6-oxo-1,6-dihydropyridin-3-yl)thiophene-2-sulfonic acid 1-(pyridin-2-yl)ethylamide hydrochloride] | 0.21 |
| CCc1cc(-c2cncc(C(=O)NCCn3c([N+](=O)[O-])cnc3C)c2)c(C)[nH]c1=O [Example 249, 5′-Ethyl-2′-methyl-6′-oxo-1′,6′-dihydro-[3,3′]bipyridinyl-5-carboxylic acid [2-(2-methyl-5-nitro-imidazol-1-yl)-ethyl]-amide] | 5 |
| CCc1cc(-c2ccc(CO)o2)c(C)[nH]c1=O [Example 200A, 3-Ethyl-5-(5-hydroxymethyl-furan-2-yl)-6-methyl-1H-pyridin-2-one] | 1.03 |
| CCc1cc(-c2cncc(C(=O)NCc3ccccc3)c2)c(C)[nH]c1=O [Example 220, 5′-Ethyl-2′-methyl-6′-oxo-1′,6′-dihydro-[3,3′]bipyridinyl-5-carboxylic acid benzylamide] | 1.27 |
| CCc1cc(-c2cc(C(=O)NCCc3ccc([N+](=O)[O-])cc3)ccn2)c(C)[nH]c1=O [Example 213, 5′-Ethyl-2′-methyl-6′-oxo-1′,6′-dihydro-[2,3′]bipyridinyl-4-carboxylic acid [2-(4-nitro-phenyl)-ethyl]-amide] | 0.21 |
| CCc1cc(-c2cncc(C(=O)NCc3cccnc3)c2)c(C)[nH]c1=O [Example 222, 5′-Ethyl-2′-methyl-6′-oxo-1′,6′-dihydro-[3,3′]bipyridinyl-5-carboxylic acid (pyridin-3-ylmethyl)-amide] | 0.75 |
| CCc1cc(-c2cncc(C(=O)NCc3ccccn3)c2)c(C)[nH]c1=O [Example 221, 5′-Ethyl-2′-methyl-6′-oxo-1′,6′-dihydro-[3,3′]bipyridinyl-5-carboxylic acid (pyridin-2-ylmethyl)-amide] | 2.04 |
| CCc1cc(-c2cncc(C(=O)NCCc3nc4ccccc4[nH]3)c2)c(C)[nH]c1=O [Example 245, 5′-Ethyl-2′-methyl-6′-oxo-1′,6′-dihydro-[3,3′]bipyridinyl-5-carboxylic acid [2-(1H-benzoimidazol-2-yl)-ethyl]-amide] | 1.9 |
| CCc1cc(-c2ccc(C(=O)N3CCN(c4ccccc4)CC3)o2)c(C)[nH]c1=O [Example 201, 3-Ethyl-6-methyl-5-[5-(4-phenyl-piperazine-1-carbonyl)-furan-2-yl]-1H-pyridin-2-one] | 1.35 |
| CCCCNC(=O)c1ccnc(-c2cc(CC)c(=O)[nH]c2C)c1 [Example 215, 5′-Ethyl-2′-methyl-6′-oxo-1′,6′-dihydro-[2,3′]bipyridinyl-4-carboxylic acid butylamide] | 1.25 |
| CCc1cc(-c2cncc(C(=O)NCc3cccc(OC)c3)c2)c(C)[nH]c1=O [Example 263, 5′-Ethyl-2′-methyl-6′-oxo-1′,6′-dihydro-[3,3′]bipyridinyl-5-carboxylic acid 3-methoxy-benzylamide] | 2.67 |
| CCc1cc(-c2cncc(C(=O)NCCc3ccc(S(N)(=O)=O)cc3)c2)c(C)[nH]c1=O [Example 237, 5′-Ethyl-2′-methyl-6′-oxo-1′,6′-dihydro-[3,3′]bipyridinyl-5-carboxylic acid [2-(4-sulfamoyl-phenyl)-ethyl]-amide] | 1.34 |
| CCc1cc(-c2ccc(CNC(C)=O)o2)c(C)[nH]c1=O [Example 274, N-[5-(5-Ethyl-2-methyl-6-oxo-1,6-dihydro-pyridin-3-yl)-furan-2-ylmethyl]-acetamide] | 0.83 |
| CCCCNC(=O)c1ccc(-c2cc(CC)c(=O)[nH]c2C)nc1 [Example 209, 5′-Ethyl-2′-methyl-6′-oxo-1′,6′-dihydro-[2,3′]bipyridinyl-5-carboxylic acid butylamide] | 13 |
| CCc1cc(-c2cncc(C(=O)NCCc3ccncc3)c2)c(C)[nH]c1=O [Example 238, 5′-Ethyl-2′-methyl-6′-oxo-1′,6′-dihydro-[3,3′]bipyridinyl-5-carboxylic acid (2-pyridin-4-yl-ethyl)-amide] | 0.35 |
| CCc1cc(-c2cncc(C(=O)NCC(=O)c3ccccc3)c2)c(C)[nH]c1=O [Example 244, 5′-Ethyl-2′-methyl-6′-oxo-1′,6′-dihydro-[3,3′]bipyridinyl-5-carboxylic acid (2-oxo-2-phenyl-ethyl)-amide] | 0.32 |
| CCc1cc(-c2cncc(C(=O)N[C@H]3CC=CC[C@H]3C(N)=O)c2)c(C)[nH]c1=O [Example 260, 5′-Ethyl-2′-methyl-6′-oxo-1′,6′-dihydro-[3,3′]bipyridinyl-5-carboxylic acid ((1S,6R)-6-carbamoyl-cyclohex-3-enyl)-amide] | 0.8 |
| CCc1cc(-c2cncc(C(=O)Nc3cccc(OC)c3)c2)c(C)[nH]c1=O [Example 248, 5′-Ethyl-2′-methyl-6′-oxo-1′,6′-dihydro-[3,3′]bipyridinyl-5-carboxylic acid (3-methoxy-phenyl)-amide] | 0.85 |
| CCc1cc(-c2cncc(C(=O)N(CC)CC)c2)c(C)[nH]c1=O [Example 227, 5′-Ethyl-2′-methyl-6′-oxo-1′,6′-dihydro-[3,3′]bipyridinyl-5-carboxylic acid diethylamide] | 1.98 |
| CCc1cc(-c2ccc(CNCc3cnn(C)c3)o2)c(C)[nH]c1=O [Example 182D, 3-Ethyl-6-methyl-5-(5-{[(1-methyl-1H-pyrazol-4-ylmethyl)-amino]-methyl}-furan-2-yl)-1H-pyridin-2-one] | 0.3 |
| CCc1cc(-c2ccc(S(=O)(=O)NCc3ccccc3)s2)c(C)[nH]c1=O [Example 122A, 5-(5-Ethyl-2-methyl-6-oxo-1,6-dihydro-pyridin-3-yl)-thiophene-2-sulfonic acid benzylamide] | 1.22 |
| CCc1cc(-c2coc(CNCc3ccccn3)c2)c(C)[nH]c1=O [Example 182F, 3-Ethyl-6-methyl-5-(5-{[(pyridin-2-ylmethyl)-amino]-methyl}-furan-3-yl)-1H-pyridin-2-one] | 1.62 |
| CCc1cc(-c2cc(C(=O)NCCN3CCOCC3)ccn2)c(C)[nH]c1=O [Example 217, 5′-Ethyl-2′-methyl-6′-oxo-1′,6′-dihydro-[2,3′]bipyridinyl-4-carboxylic acid (2-morpholin-4-yl-ethyl)-amide] | 2.87 |
| CCc1cc(-c2ccc(CN(Cc3ccccc3)Cc3cccnc3)o2)c(C)[nH]c1=O [Example 182A, 5-{5-[(Benzyl-pyridin-3-ylmethyl-amino)-methyl]-furan-2-yl}-3-ethyl-6-methyl-1H-pyridin-2-one] | 17.4 |
| CCc1cc(-c2cncc(C(=O)NCC(O)c3ccccc3)c2)c(C)[nH]c1=O (centres unmarked) [Example 253, 5′-Ethyl-2′-methyl-6′-oxo-1′,6′-dihydro-[3,3′]bipyridinyl-5-carboxylic acid (2-hydroxy-2-phenyl-ethyl)-amide] | 0.49 |
| CCc1cc(-c2cncc(C(=O)NCCc3ccccc3)c2)c(C)[nH]c1=O [Example 236, 5′-Ethyl-2′-methyl-6′-oxo-1′,6′-dihydro-[3,3′]bipyridinyl-5-carboxylic acid phenethyl-amide] | 0.44 |
| CCc1cc(-c2ccc(CNCc3ccccc3)o2)c(C)[nH]c1=O [Example 123, 5-[5-(Benzylamino-methyl)-furan-2-yl]-3-ethyl-6-methyl-1H-pyridin-2-one hydrochloride] | 0.58 |
| CCc1cc(-c2ccc(CNC(=O)Cc3ccccc3)o2)c(C)[nH]c1=O [Example 270, N-[5-(5-Ethyl-2-methyl-6-oxo-1,6-dihydro-pyridin-3-yl)-furan-2-ylmethyl]-2-phenyl-acetamide] | 1.18 |

Target: T1, recombinant human PARP (PARP1) (Homo sapiens, UniProt P09874)
T1 construct: Full length human PARP (PARP1) is assembled from PCR fragments; His6 tag with TEV site, from the pFastBac-HTb vector (own knowledge of the vector); made in house; host or cells: insect cells, baculovirus (Bac-to-Bac, Gibco-BRL)
T1 sequence (P09874 whole entry, the tested form may be a part): as the sequence (P09874 whole entry) above
Assay: PARP enzyme assay, Method A (radioactivity or 'ELISA' enzyme assay with partially purified enzyme)
Type: biochemical
Conditions: recombinant human PARP preparation, radioactive or ELISA enzyme assay
In short: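 Partially purified recombinant full-length His-tagged human PARP1, baculovirus-expressed. Radioactive format: 100 μg/mL sonicated DNA, 100 μg/mL histones, 100 mM Tris pH 8.0, 10 mM MgCl2, 200 μM labeled NAD, 10 min 37 °C or 60 min RT, TCA-precipitated counts. ELISA format: 250 μM NAD plus biotin-NAD on histone plates, TMB A450.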

| SMILES | IC50 [µM] |
| --- | --- |
| CCc1cc(-c2ccc(CNCCCn3ccnc3)s2)c(C)[nH]c1=O [Example 153, 3-Ethyl-6-methyl-5-{5-[(3-imidazol-1-yl-propylamino)-methyl]thiophen-2-yl)-1H-pyridin-2-one dihydrochloride] | 0.67 |
